Laboratory results as given in article PMC7922564, “Molecular Insights into an Antibiotic Enhancer Action of New Morpholine-Containing 5-Arylideneimidazolones in the Fight against MDR Bacteria” (International Journal of Molecular Sciences, 2021).
≈ marks a conversion by molar mass, not a printed value.

Key:
[1] = Stability in acidic and basic conditions (TLC); assay type: physicochemical; settings: for Number of TLC spots: 1 = stable
Protocol: Compounds 9–12, 15, and 19 were also tested for their stability in acidic and basic conditions. This assay was carried out for 48 h and samples were taken at six-time intervals (10 min, 1 h, 2 h, 3 h, 24 h, 48 h). Stability of the compounds was determined using the TLC method. […] In basic conditions, only compounds 10 and 15 were stable for 24 h. […] Results with details, including time of degradation of products obtained, are presented in the Supplementary (Tables S19 and S20). […]
VI. Stability in different pH conditions
Stability of chosen compounds (9-12, 15, and 19) were determined using the TLC method. Assays were performed in acidic and basic conditions and were carried out for 48 h. Samples were taken at six-time intervals (10 min., 1 h, 2 h, 3 h, 24 h, 48 h). […]
of spots observed on TLC, where 1 indicate that compound is stable (only TLC spot for proper compound was observed). Higher values point out how many products of degradation was observed, which can be calculating by subtracting one from number of spots.
Table S19. Results of chosen compounds (9-12, 15, 19) stability in acidic conditions.
Compound Number of TLC spots in defined time
Table S20. Results of chosen compounds (9-12, 15, 19) stability in basic conditions.

S. aureus ATCC 25923 [2] = tested on: S. aureus ATCC 25923; design: method as in earlier work; settings: unstarred value; published previously; cited from earlier work
S. aureus ATCC 25923 [3] = tested on: S. aureus ATCC 25923; design: method as in earlier work; settings: published previously, cited from earlier work
[4] = tested on: K. aerogenes Ea-294, Ea-308; design: method as in earlier work; settings: doxycycline, chloramphenicol, norfloxacin, already published, cited from earlier work
K. aerogenes Ea-289 = tested on: K. aerogenes Ea-289; design: method as in earlier work; settings: doxycycline, chloramphenicol, norfloxacin, already published, cited from earlier work
K. aerogenes CM-64 = tested on: K. aerogenes CM-64; design: method as in earlier work; settings: doxycycline, chloramphenicol, norfloxacin, already published, cited from earlier work
[5] = tested on: AcrAB-TolC efflux pump in K. aerogenes strain Ea-289; design: method as in PMID 30691112; settings: compound 100 µM; previously described; cited from earlier work
S. aureus Mu50 = test: MIC of compounds, S. aureus Mu50; assay type: cell-based; settings: Staphylococcus aureus; Mu50 (VISA)
Protocol: Compounds 14–16 were tested further for their adjuvant-like effect with a set of ten additional S. aureus isolates. Firstly, MIC values of the molecules were evaluated in two clinical MSSA isolates (MM-O058, MM-N072), seven MRSA (USA300 LAC, 5328, LG-N017, MM-O021, R45-CC45, R46-CC22, COL) and one VISA strain (Mu50). Detailed results are presented in the Supplementary section (Table S3). […]
Initially, MICs of a series of imidazolone derivatives were assessed against susceptible (reference) and MDR strains of staphylococci. Next, MIC values of the aforementioned antibiotics were determined in the absence and presence of imidazolone derivatives to assess the chemosensitizing effect of these compounds. […] Antibacterial activity of compounds and antibiotics ampicillin, vancomycin, ciprofloxacin, and erythromycin was recorded as the lowest concentration of molecules able to inhibit bacterial growth after 18 h incubation at 37 °C. […] The results are presented as activity gain (A) parameter which was calculated as ratio of MIC of a certain antibiotic (MICAnt) to its MICAnt+Comp, observed in combination with a tested compound (7, 12–16, 19, or 20; Equation (1)). […]

Row | SMILES | Number of TLC spots ([1]; acidic conditions, 10 min) | Number of TLC spots ([1]; acidic conditions, 1 h) | Number of TLC spots ([1]; acidic conditions, 2 h) | Number of TLC spots ([1]; acidic conditions, 3 h) | Number of TLC spots ([1]; acidic conditions, 24 h) | Number of TLC spots ([1]; acidic conditions, 48 h) | Number of TLC spots ([1]; basic conditions, 10 min) | Number of TLC spots ([1]; basic conditions, 1 h) | Number of TLC spots ([1]; basic conditions, 2 h) | Number of TLC spots ([1]; basic conditions, 3 h) | Number of TLC spots ([1]; basic conditions, 24 h) | Number of TLC spots ([1]; basic conditions, 48 h) | MIC (S. aureus Mu50) [µM] | further results
1 | NC1=N/C(=C\c2ccc3c(c2)Cc2ccccc2-3)C(=O)N1CCCN1CCOCC1 [Compound 19] | 1 | 1 | 1 | 2 | 2 | 3 | 4 | 4 | 4 | 4 | 4 | 4 | – | –
2 | NC1=N/C(=C\c2cccc(Oc3ccccc3)c2)C(=O)N1CCCN1CCOCC1 [Compound 16] | – | – | – | – | – | – | – | – | – | – | – | – | – | MIC value (S. aureus ATCC 25923 [2]): 125 µM (≈ 50.8 µg/mL); MIC reduction (S. aureus ATCC 25923 [3]; oxacillin alone to oxacillin + compound): No effect; A (activity gain) (S. aureus ATCC 25923 [3]; oxacillin): 1; MIC reduction ([4]; erythromycin + compound): No effect; A (activity gain) ([4]; erythromycin): 1; MIC reduction (K. aerogenes Ea-289; erythromycin + compound): No effect; A (activity gain) (K. aerogenes Ea-289; erythromycin): 1; MIC reduction (K. aerogenes CM-64; erythromycin + compound): No effect; A (activity gain) (K. aerogenes CM-64; erythromycin): 1; Inhibition efficiency (IE) towards extrusion of 1,2'-dNA [5]: 61%
3 | NC1=N/C(=C\c2ccc(-c3ccccc3)cc2)C(=O)N1CCCN1CCOCC1 [Compound 15] | 2 | 2 | 2 | 2 | 2 | 2 | 1 | 1 | 1 | 1 | 1 | 2 | 250 | time stable ([1]; basic conditions): 24 h
4 | NC1=N/C(=C\c2ccc(-c3ccccc3)cc2)C(=O)N1CCN1CCOCC1 [Compound 14] | – | – | – | – | – | – | – | – | – | – | – | – | ≥ 500 | –
